Source: patent publication US20160281050A1, “METHODS FOR TREATING A CULTURE OF HAEMATOCOCCUS PLUVIALIS FOR CONTAMINATION USING SALT AND HYDROGEN PEROXIDE” (HELIAE DEVELOPMENT LLC, priority 2015, published 2016)

Key:
chytrids = assay: % chytrid infection in flasks, salt treatment (Example 12); assay type: cell-based
Protocol: This test was done side by side in flasks (0.1 L) and in reactors located in a greenhouse operating in conditions: reactor volume of 230 L; Daily PAR of 20 mol m^−2 d^−1; pH (not measured); and paddlewheel speed of 21 RPM. […] The flask cultures were mixed by shaking at 140 rpm and received 300-400 μmol/m^2 s of photosynthetically active radiation (PAR) in 12 hour light cycles and constant supply of 2.5% CO2. The motility of the culture was monitored by visual observation under a microscope. […] Nine 230 L reactors were also seeded with culture from bioreactor #2410 on the same day as the flasks and brought to 2 ppt concentration of salt. Once motility of the cells was reduced to <10% (day 3 of culture for flasks and day 2 for 230 L reactors) the level of salt was elevated to a point between 4-18 ppt and compared to the culture in two reactors remaining at 2 ppt salt. Flasks and 230 L reactors were monitored for percentage of cell lysis via visual observation under a microscope, culture dry weight (biomass accumulation in g/L), and percentage of chytrid infection via visual observation under a microscope. Carotenoid production, a proxy for determining astaxanthin, was quantified every other day of culture in the 230 L reactors using the UV method.

[1] = system: Haematococcus pluvialis (Strain 2); assay: % lysis and culture dry weight in flasks (Example 9); details: for percent lysis: by day 5;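 on all read-outs here: flask cultures run in duplicate for each treatment, alongside duplicate untreated control flasks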
Description: Culture samples of Haematococcus pluvialis (Strain 2) were collected on day 5 of the culture from open raceway bioreactor #2420 operating in conditions: reactor volume of 170,000 L; Daily PAR not measured; pH of 7.3; and paddlewheel speed of 70%). Culture samples were distributed into flasks for culturing, consisting of duplicate untreated controls and duplicate treatments. […] Samples were taken from the flask cultures every few days in order to quantify % lysis, % chytrid infection, and cell dry weight for a duration of about 11 days.

[2] = system: Nitrogen fixing bacteria including Rhizobium, Emticicia, and Sinorhizobium; details: after the hydrogen peroxide treatments in bioreactor #2320 (from 20-40%)
Description: A series of Haematococcus pluvialis (Strain 1) cultures were compared using bacterial community sequencing (SSU rRNA 16s) to analyze the bacterial community of the cultures during a lysis event, a chytrid infection, and during treatment with hydrogen peroxide to determine if the bacteria community shifts or produces a detectable pattern.

[3] = system: Haematococcus pluvialis (Strain 2); assay: % lysis and culture dry weight in flasks (Example 11)
Description: Culture samples of Haematococcus pluvialis (Strain 2) were collected on the second day of culture from open raceway bioreactor #2410 operating in conditions: reactor volume of 150,000 L; Daily PAR of 9.77 mol m^−2 d^−1; pH of 7.3; and paddlewheel speed of 70%. Culture samples were distributed into flasks for culturing, consisting of duplicate untreated controls and duplicate treatments. […] Samples were taken from the flask cultures daily to quantify % lysis and % chytrid infection and cell dry weight was quantified every other day for a duration of 11 days.

[4] = system: Haematococcus pluvialis (Strain 1) green swimmer cells
Description: Haematococcus pluvialis cultures containing green swimmer cells in open raceway pond bioreactors [identification numbers (#) 2210 and 2220] disposed in a greenhouse, using paddlewheel mixing, and operating in conditions: reactor volume of 16,000 L; Daily photosynthetically active radiation (PAR) of 57 mol m^−2 d^−1; pH of 7.5; and paddlewheel speed of 40%; were inoculated on the same day and cultured in growth conditions.
The culture of bioreactor #2330 was transferred to open raceway pond bioreactor #2420 disposed in a greenhouse, using paddlewheel mixing, and operating in conditions: reactor volume of 140,000 L; Daily PAR of 58 mol m^−2 d^−1; pH of 7.3; and paddlewheel speed of 70%); but the culture was not treated after the transfer. […] Bacteria including Pseudomonas, Flectobacillus, and Cytophaga were present in the bacterial community in both the bioreactors #2330 and #2420.

[5] = bioreactor #2220, 0.0075 mL/L every 24 hours

[Cl-].[Na+] [NaCl, sodium chloride]
% Chytrid infection in Flasks (chytrids; 2 ppt, 9 d): 82 ± 17%
% Chytrid infection in Flasks (chytrids; 2 ppt, 11 d): 96 ± 4%
% Chytrid infection in Flasks (chytrids; 4 ppt, 9 d): 22 ± 20%
% Chytrid infection in Flasks (chytrids; 4 ppt, 11 d): 85 ± 16%
% Chytrid infection in Flasks (chytrids; 5 ppt, 9 d): 18 ± 16%
% Chytrid infection in Flasks (chytrids; 5 ppt, 11 d): 53 ± 9%
% Chytrid infection in Flasks (chytrids; 6 ppt, 9 d): 8 ± 11%
% Chytrid infection in Flasks (chytrids; 6 ppt, 11 d): 19 ± 27%
% Chytrid infection in Flasks (chytrids; 7 ppt, 9 d): 3 ± 5%
% Chytrid infection in Flasks (chytrids; 7 ppt, 11 d): 0 ± 0%
% Chytrid infection in Flasks (chytrids; 8 ppt, 9 d): 1 ± 1%
% Chytrid infection in Flasks (chytrids; 8 ppt, 11 d): 2 ± 2%
% Chytrid infection in Flasks (chytrids; 9 ppt, 9 d): 1 ± 1%
% Chytrid infection in Flasks (chytrids; 9 ppt, 11 d): 1 ± 1%
% Chytrid infection in Flasks (chytrids; 10 ppt, 9 d): 0 ± 0%
% Chytrid infection in Flasks (chytrids; 10 ppt, 11 d): 0 ± 0%
% Chytrid infection in Flasks (chytrids; 11 ppt, 9 d): 0 ± 0%
% Chytrid infection in Flasks (chytrids; 11 ppt, 11 d): 17 ± 24%
chytrid infection (chytrids; treatments between 7-10 ppt in flasks): 5-10%

hydrogen peroxide [H2O2]
% Lysis ([1]; 0.0105 mL/L 3 times per day (discontinued day 5), day 6): 3.3 ± 2.4%
% Lysis ([1]; 0.0105 mL/L 3 times per day (discontinued day 5), day 9): 6.7 ± 2.4%
% Lysis ([1]; 0.0105 mL/L 3 times per day (discontinued day 5), day 11): 4.2 ± 3.5%
% Lysis ([1]; 0.0105 mL/L 3 times per day, day 0): 4.2 ± 1.2%
% Lysis ([1]; 0.0105 mL/L 3 times per day, day 3): 0.8 ± 1.2%
% Lysis ([1]; 0.0105 mL/L 3 times per day, day 4): 3.3 ± 2.4%
% Lysis ([1]; 0.0105 mL/L 3 times per day, day 5): 10.8 ± 1.2%
% Lysis ([1]; 0.0140 mL/L 1 time per day (discontinued day 5), day 6): 7.5 ± 1.2%
% Lysis ([1]; 0.0140 mL/L 1 time per day (discontinued day 5), day 9): 10.8 ± 1.2%
% Lysis ([1]; 0.0140 mL/L 1 time per day (discontinued day 5), day 11): 7.5 ± 1.2%
% Lysis ([1]; 0.0140 mL/L 1 time per day, day 0): 4.2 ± 1.2%
% Lysis ([1]; 0.0140 mL/L 1 time per day, day 3): 5.0 ± 2.4%
% Lysis ([1]; 0.0140 mL/L 1 time per day, day 4): 4.2 ± 1.2%
% Lysis ([1]; 0.0140 mL/L 1 time per day, day 5): 10.0 ± 2.4%
% Lysis ([1]; 0.0140 mL/L 2 times per day (discontinued day 5), day 6): 9.7 ± 5.9%
% Lysis ([1]; 0.0140 mL/L 2 times per day (discontinued day 5), day 9): 5.0 ± 0.0%
% Lysis ([1]; 0.0140 mL/L 2 times per day (discontinued day 5), day 11): 0.0 ± 0.0%
% Lysis ([1]; 0.0140 mL/L 2 times per day, day 0): 4.2 ± 1.2%
% Lysis ([1]; 0.0140 mL/L 2 times per day, day 3): 5.0 ± 4.7%
% Lysis ([1]; 0.0140 mL/L 2 times per day, day 4): 3.3 ± 2.4%
% Lysis ([1]; 0.0140 mL/L 2 times per day, day 5): 10.0 ± 2.4%
% Lysis ([1]; 0.0140 mL/L 3 times per day (discontinued day 5), day 6): 55.0 ± 30.6%
% Lysis ([1]; 0.0140 mL/L 3 times per day (discontinued day 5), day 9): 60.0 ± 28.3%
% Lysis ([1]; 0.0140 mL/L 3 times per day (discontinued day 5), day 11): 56.7 ± 33.0%
% Lysis ([1]; 0.0140 mL/L 3 times per day, day 0): 4.2 ± 1.2%
% Lysis ([1]; 0.0140 mL/L 3 times per day, day 3): 2.5 ± 3.5%
% Lysis ([1]; 0.0140 mL/L 3 times per day, day 4): 9.2 ± 1.2%
% Lysis ([1]; 0.0140 mL/L 3 times per day, day 5): 42.5 ± 15.3%
percent lysis ([1]; 0.014 mL/L dosed three times per day): 40%
% Lysis ([1]; 0.0175 mL/L 1 time per day (discontinued day 5), day 6): 6.7 ± 2.4%
% Lysis ([1]; 0.0175 mL/L 1 time per day (discontinued day 5), day 9): 6.7 ± 4.7%
% Lysis ([1]; 0.0175 mL/L 1 time per day (discontinued day 5), day 11): 4.2 ± 3.5%
% Lysis ([1]; 0.0175 mL/L 1 time per day, day 0): 4.2 ± 1.2%
% Lysis ([1]; 0.0175 mL/L 1 time per day, day 3): 2.5 ± 1.2%
% Lysis ([1]; 0.0175 mL/L 1 time per day, day 4): 4.2 ± 1.2%
% Lysis ([1]; 0.0175 mL/L 1 time per day, day 5): 9.2 ± 1.2%
percent lysis ([1]; all treated cultures except 0.014 mL/L three times per day): 10%
relative amount of nitrogen fixing bacteria in the dominant bacterial community [2]: less than 10%
% Lysis ([3]; 0.0105 mL/L 1 time daily for 3 days, day 1): 5.0 ± 5.0%
% Lysis ([3]; 0.0105 mL/L 1 time daily for 3 days, day 2): 3.3 ± 0.0%
% Lysis ([3]; 0.0105 mL/L 1 time daily for 3 days, day 3): 7.5 ± 1.2%
% Lysis ([3]; 0.0105 mL/L 1 time daily for 3 days, day 4): 0.8 ± 1.2%
% Lysis ([3]; 0.0105 mL/L 1 time daily for 3 days, day 5): 5.0 ± 0.0%
% Lysis ([3]; 0.0105 mL/L 1 time daily for 3 days, day 6): 4.2 ± 1.2%
% Lysis ([3]; 0.0105 mL/L 1 time daily for 3 days, day 7): 1.7 ± 2.4%
% Lysis ([3]; 0.0105 mL/L 1 time every other day, day 1): 5.0 ± 5.0%
% Lysis ([3]; 0.0105 mL/L 1 time every other day, day 2): 3.3 ± 2.4%
% Lysis ([3]; 0.0105 mL/L 1 time every other day, day 3): 4.2 ± 1.2%
% Lysis ([3]; 0.0105 mL/L 1 time every other day, day 4): 3.3 ± 0.0%
% Lysis ([3]; 0.0105 mL/L 1 time every other day, day 5): 3.3 ± 2.4%
% Lysis ([3]; 0.0105 mL/L 1 time every other day, day 6): 3.3 ± 2.4%
% Lysis ([3]; 0.0105 mL/L 1 time every other day, day 7): 3.3 ± 0.0%
% Lysis ([3]; 0.0105 mL/L 1 time per day, day 1): 5.0 ± 5.0%
% Lysis ([3]; 0.0105 mL/L 1 time per day, day 2): 2.5 ± 1.2%
% Lysis ([3]; 0.0105 mL/L 1 time per day, day 3): 5.8 ± 3.5%
% Lysis ([3]; 0.0105 mL/L 1 time per day, day 4): 4.2 ± 1.2%
% Lysis ([3]; 0.0105 mL/L 1 time per day, day 5): 4.2 ± 3.5%
% Lysis ([3]; 0.0105 mL/L 1 time per day, day 6): 0.0 ± 0.0%
% Lysis ([3]; 0.0105 mL/L 1 time per day, day 7): 2.4 ± 0.0%
cell lysis ([3]; flasks across treatments, 0.0105 mL/L): below 10%
duration of high motility compared with untreated culture #2210 [4, 5]: one day longer
motility retained [4, 5]: 95%
time of chytrid detection compared with untreated culture #2310 ([4]; bioreactor #2320, 0.0075 mL/L every 24 hours): three days later
onset of high amounts of cell lysis ([4]; bioreactor #2320, treated culture): not until five days after the treatment ended
decrease of motility ([4]; bioreactor #2330, 0.0075 mL/L, after the first treatment): about 30%
lysis ([4]; bioreactor #2330, 0.0075 mL/L, after the second treatment): 60%
Chytrid sporangia present, time after hydrogen peroxide treatment ended ([4]; bioreactors #2330/#2420, end of the culture period): 7 days
Chytrid sporangia in the culture ([4]; bioreactors #2330/#2430, 0.0075 mL/L once before and twice after transfer): not detected
time high amounts of cell lysis remained high ([4]; bioreactors #2330/#2430, treatment began after lysis had occurred): 4 days
